Experimental data from ChEMBL document CHEMBL4396887, “Five-Membered N-Heterocyclic Scaffolds as Novel Amino Bioisosteres at γ-Aminobutyric Acid (GABA) Type A Receptors and GABA Transporters” (J Med Chem, 2019).
Active and inactive are the calls of the source.

Legend:
Homo sapiens [1] = organism: Homo sapiens; assay: Agonist activity at recombinant human GABA-A alpha3beta2gamma2S receptor transiently expressed in human tsA201 cells at >= 30 uM incubated for 30 mins and measured up to 90 secs by FMP dye based FLIPR membrane potential blue assay; type: cell-based
[2] = target: T1, Gamma-aminobutyric acid receptor subunit alpha-4/beta-2/gamma-2 (Homo sapiens, UniProt P47870+P18507+P48169); assay: Agonist activity at recombinant human GABA-A alpha4beta2gamma2S receptor transiently expressed in human tsA201 cells incubated for 30 mins and measured up to 90 secs by FMP dye based FLIPR membrane potential blue assay; type: cell-based
[3] = target: T2, Sodium- and chloride-dependent GABA transporter 2 (Homo sapiens) (UniProt Q9NSD5); assay: Inhibition of human GAT2 expressed in Flp-In CHO cells assessed as reduction in [3H]GABA uptake at 100 uM incubated for 3 mins by liquid scintillation counting method relative to control; type: cell-based
T2 sequence (whole entry): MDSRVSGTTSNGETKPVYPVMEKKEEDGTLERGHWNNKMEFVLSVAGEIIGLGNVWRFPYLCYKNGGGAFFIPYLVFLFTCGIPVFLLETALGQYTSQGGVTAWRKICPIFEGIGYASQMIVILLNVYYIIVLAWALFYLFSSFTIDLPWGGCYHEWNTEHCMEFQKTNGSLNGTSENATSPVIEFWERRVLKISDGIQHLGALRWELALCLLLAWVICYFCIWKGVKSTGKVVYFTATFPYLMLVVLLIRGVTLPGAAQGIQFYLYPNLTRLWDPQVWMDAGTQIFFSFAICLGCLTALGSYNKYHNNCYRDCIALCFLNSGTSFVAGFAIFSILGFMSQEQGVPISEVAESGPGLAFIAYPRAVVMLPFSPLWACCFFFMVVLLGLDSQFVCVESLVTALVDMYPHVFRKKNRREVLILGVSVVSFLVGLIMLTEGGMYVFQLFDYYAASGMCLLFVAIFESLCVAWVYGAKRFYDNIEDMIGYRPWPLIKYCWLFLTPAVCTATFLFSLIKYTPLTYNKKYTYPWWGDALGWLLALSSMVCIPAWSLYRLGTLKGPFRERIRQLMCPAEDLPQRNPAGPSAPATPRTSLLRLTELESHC

Homo sapiens [4] = organism: Homo sapiens; assay: Agonist activity at recombinant human GABA-A alpha3beta2gamma2S receptor transiently expressed in human tsA201 cells assessed as GABA-induced maximum response incubated for 30 mins and measured up to 90 secs by FMP dye based FLIPR membrane potential blue assay relative to GABA; type: cell-based
[5] = target: T3, GABA-A receptor; alpha-1/beta-2/gamma-2 (Homo sapiens) (UniProt P14867+P47870+P18507); assay: Agonist activity at recombinant human GABA-A alpha1beta2gamma2S receptor transiently expressed in human tsA201 cells assessed as GABA-induced maximum response incubated for 30 mins and measured up to 90 secs by FMP dye based FLIPR membrane potential blue assay relative to GABA; type: cell-based
[6] = target: T1, Gamma-aminobutyric acid receptor subunit alpha-4/beta-2/gamma-2; assay: Agonist activity at recombinant human GABA-A alpha4beta2gamma2S receptor transiently expressed in human tsA201 cells assessed as GABA-induced maximum response incubated for 30 mins and measured up to 90 secs by FMP dye based FLIPR membrane potential blue assay relative to GABA; type: cell-based
[7] = target: Sodium- and chloride-dependent GABA transporter 1 (Homo sapiens, UniProt P30531); assay: Inhibition of human GAT1 expressed in Flp-In CHO cells assessed as reduction in [3H]GABA uptake at 100 uM incubated for 3 mins by liquid scintillation counting method relative to control; type: cell-based
Chain of Sodium- and chloride-dependent GABA transporter 1 (P30531 whole entry, looked up): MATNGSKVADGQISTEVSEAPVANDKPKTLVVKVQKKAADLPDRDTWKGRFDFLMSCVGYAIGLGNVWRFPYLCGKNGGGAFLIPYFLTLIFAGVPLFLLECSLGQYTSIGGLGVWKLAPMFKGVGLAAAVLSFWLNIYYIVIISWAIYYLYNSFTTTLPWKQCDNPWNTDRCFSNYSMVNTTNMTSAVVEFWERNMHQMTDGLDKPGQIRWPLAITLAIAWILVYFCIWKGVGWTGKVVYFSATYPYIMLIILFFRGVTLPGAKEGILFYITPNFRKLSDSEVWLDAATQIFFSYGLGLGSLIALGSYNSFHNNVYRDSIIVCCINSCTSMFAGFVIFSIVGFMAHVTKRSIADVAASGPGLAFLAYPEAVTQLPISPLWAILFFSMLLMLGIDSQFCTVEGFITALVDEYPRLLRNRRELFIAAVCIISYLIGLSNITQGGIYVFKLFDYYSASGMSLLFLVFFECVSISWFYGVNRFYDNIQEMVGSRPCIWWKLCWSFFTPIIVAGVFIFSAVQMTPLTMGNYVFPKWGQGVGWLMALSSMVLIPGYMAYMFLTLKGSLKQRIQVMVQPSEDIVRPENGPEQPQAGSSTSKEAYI

Homo sapiens [8] = organism: Homo sapiens
[9] = target: T3, GABA-A receptor; alpha-1/beta-2/gamma-2 (Homo sapiens); assay: Agonist activity at recombinant human GABA-A alpha1beta2gamma2S receptor transiently expressed in human tsA201 cells at >= 10 uM incubated for 30 mins and measured up to 90 secs by FMP dye based FLIPR membrane potential blue assay; type: cell-based
[10] = target: T4, Sodium- and chloride-dependent betaine transporter (Homo sapiens) (UniProt P48065); assay: Inhibition of human BGT1 expressed in Flp-In CHO cells assessed as reduction in [3H]GABA uptake at 100 uM incubated for 3 mins by liquid scintillation counting method relative to control; type: cell-based
T4 sequence (whole entry): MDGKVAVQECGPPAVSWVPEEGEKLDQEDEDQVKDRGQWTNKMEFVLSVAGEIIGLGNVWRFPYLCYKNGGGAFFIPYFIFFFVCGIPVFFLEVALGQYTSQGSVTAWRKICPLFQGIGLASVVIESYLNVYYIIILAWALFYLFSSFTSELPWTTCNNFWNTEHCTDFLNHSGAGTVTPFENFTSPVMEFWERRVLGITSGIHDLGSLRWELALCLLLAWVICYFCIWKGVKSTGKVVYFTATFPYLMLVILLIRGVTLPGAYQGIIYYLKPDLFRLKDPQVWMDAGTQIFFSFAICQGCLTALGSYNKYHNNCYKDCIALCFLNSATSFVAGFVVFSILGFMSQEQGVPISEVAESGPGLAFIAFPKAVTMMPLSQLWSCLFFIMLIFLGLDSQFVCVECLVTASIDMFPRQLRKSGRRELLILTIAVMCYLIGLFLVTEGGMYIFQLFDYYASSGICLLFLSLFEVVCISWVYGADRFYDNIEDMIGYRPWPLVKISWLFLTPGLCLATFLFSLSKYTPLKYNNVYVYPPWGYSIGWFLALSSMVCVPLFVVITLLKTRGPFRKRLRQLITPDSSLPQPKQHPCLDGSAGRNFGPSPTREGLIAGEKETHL

[11] = target: T3, GABA-A receptor; alpha-1/beta-2/gamma-2 (Homo sapiens); assay: Agonist activity at recombinant human GABA-A alpha1beta2gamma2S receptor transiently expressed in human tsA201 cells incubated for 30 mins and measured up to 90 secs by FMP dye based FLIPR membrane potential blue assay; type: cell-based
[12] = target: T5, Sodium- and chloride-dependent GABA transporter 3 (Homo sapiens) (UniProt P48066); assay: Inhibition of human GAT3 expressed in Flp-In CHO cells assessed as reduction in [3H]GABA uptake at 100 uM incubated for 3 mins by liquid scintillation counting method relative to control; type: cell-based
T5 sequence (whole entry): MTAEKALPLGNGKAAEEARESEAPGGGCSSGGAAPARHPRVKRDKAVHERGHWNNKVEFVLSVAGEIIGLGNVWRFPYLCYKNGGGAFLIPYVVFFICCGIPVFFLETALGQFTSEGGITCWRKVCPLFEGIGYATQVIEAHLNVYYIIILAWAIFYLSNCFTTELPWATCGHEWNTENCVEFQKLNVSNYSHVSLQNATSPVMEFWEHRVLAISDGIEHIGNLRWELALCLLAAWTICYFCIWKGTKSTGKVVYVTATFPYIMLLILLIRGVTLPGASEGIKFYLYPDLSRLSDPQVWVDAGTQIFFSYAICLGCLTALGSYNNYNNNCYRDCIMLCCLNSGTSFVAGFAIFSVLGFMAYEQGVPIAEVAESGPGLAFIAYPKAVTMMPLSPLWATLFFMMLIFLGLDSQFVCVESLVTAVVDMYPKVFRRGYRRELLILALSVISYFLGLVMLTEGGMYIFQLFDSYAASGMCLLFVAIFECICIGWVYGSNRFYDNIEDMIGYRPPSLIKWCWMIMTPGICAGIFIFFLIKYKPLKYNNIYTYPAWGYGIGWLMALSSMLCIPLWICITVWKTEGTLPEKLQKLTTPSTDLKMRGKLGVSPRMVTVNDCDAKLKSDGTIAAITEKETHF

[13] = target: Gamma-aminobutyric acid receptor subunit alpha-5/beta-2/gamma-2 (Homo sapiens) (UniProt P47870+P18507+P31644); assay: Agonist activity at recombinant human GABA-A alpha5beta2gamma2S receptor transiently expressed in human tsA201 cells assessed as GABA-induced maximum response incubated for 30 mins and measured up to 90 secs by FMP dye based FLIPR membrane potential blue assay relative to GABA; type: cell-based
[14] = target: Gamma-aminobutyric acid receptor subunit rho-1 (Homo sapiens, UniProt P24046); assay: Agonist activity at recombinant human GABA-A rho-1 receptor transiently expressed in human tsA201 cells assessed as GABA-induced maximum response incubated for 30 mins and measured up to 90 secs by FMP dye based FLIPR membrane potential blue assay relative to GABA; type: cell-based
Chain of Gamma-aminobutyric acid receptor subunit rho-1 (P24046 whole entry): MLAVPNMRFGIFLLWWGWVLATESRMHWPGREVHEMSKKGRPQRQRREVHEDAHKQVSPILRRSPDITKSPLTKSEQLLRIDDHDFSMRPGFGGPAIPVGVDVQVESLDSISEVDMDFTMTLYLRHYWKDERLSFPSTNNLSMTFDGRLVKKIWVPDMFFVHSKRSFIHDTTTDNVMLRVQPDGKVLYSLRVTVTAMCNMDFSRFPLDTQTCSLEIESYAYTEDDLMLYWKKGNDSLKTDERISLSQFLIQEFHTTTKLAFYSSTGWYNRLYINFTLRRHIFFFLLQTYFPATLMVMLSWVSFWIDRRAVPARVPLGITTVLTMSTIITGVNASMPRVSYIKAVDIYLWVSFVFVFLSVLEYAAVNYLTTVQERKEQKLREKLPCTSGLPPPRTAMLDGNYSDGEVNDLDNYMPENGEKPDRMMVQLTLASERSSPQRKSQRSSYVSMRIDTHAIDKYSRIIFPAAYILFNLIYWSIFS

[15] = target: T1, Gamma-aminobutyric acid receptor subunit alpha-4/beta-2/gamma-2; assay: Agonist activity at recombinant human GABA-A alpha4beta2gamma2S receptor transiently expressed in human tsA201 cells at >= 100 uM incubated for 30 mins and measured up to 90 secs by FMP dye based FLIPR membrane potential blue assay; type: cell-based

CC(C(=O)O)C1CSC(N)=N1 (stereo in doubt; l-10b)
active: Activity (Homo sapiens [1]) | Activity [9] | Activity [15]
inactive: pEC50 [2] | Rmax (Homo sapiens [4]) | Rmax [5] | Rmax [6] | pEC50 (Homo sapiens [8]) | pEC50 [11]
31%: Rmax [14]
> 30%: inhibition [3] | inhibition [7] | inhibition [10] | inhibition [12]
34%: Rmax [13]
